Measured values published in patent US20240217968A1, “PHARMACEUTICAL COMPOUND” (DUKE STREET BIO LIMITED, priority 2021, published 2024).

Molecular target: T1, recombinant human Flag-tagged PARP7 (amino acids 456-657) (Homo sapiens, UniProt Q7Z3E1)
T1 construct: recombinant human Flag-tagged PARP7 (amino acids 456-657)
T1 sequence (Q7Z3E1 456-657): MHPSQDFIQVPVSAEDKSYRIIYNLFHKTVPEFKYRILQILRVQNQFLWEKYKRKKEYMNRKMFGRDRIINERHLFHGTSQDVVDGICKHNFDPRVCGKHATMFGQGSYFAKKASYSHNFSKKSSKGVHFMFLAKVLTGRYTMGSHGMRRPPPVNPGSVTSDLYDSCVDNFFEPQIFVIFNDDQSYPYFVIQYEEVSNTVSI
Experiment: PARP7 biochemical DELFIA assay (auto-MARylation)
Conditions: DELFIA readout, IC50 class
Procedure, shortened: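 Flag-PARP7 (456-657), 12.5-37.5 nM stock, captured on anti-FLAG wells, preincubated 30 min with compound, then auto-MARylated with biotin-NAD+ (15 μM stock) in HEPES pH 7.5/NaCl/DTT/BSA/Tween for 2-3 h at room temperature. NAD+ quench; Eu-streptavidin DELFIA read, Ex337/Em620 nm.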

| Compound | IC50 |
| --- | --- |
| CC(COCCC(=O)N1CCN(c2cnc(C#N)cn2)CC1)n1nc(C(F)(F)F)c2c(=O)[nH]ncc21 (stereo not drawn) [Compound 313] | ≤ 100 nM |
| O=C(CCOCCn1nc(C(F)(F)F)c2c(=O)[nH]ncc21)N1CCN(c2nc(C(F)(F)F)co2)CC1 [Compound 314] | ≤ 100 nM |
| O=C(CCOCCn1nc(C(F)(F)F)c2c(=O)[nH]ncc21)N1CCN(c2ncc(C3CC3)cn2)CC1 [Compound 315] | ≤ 100 nM |
| O=C1NCCn2c(CCOCCC(=O)N3CCN(c4ncc(C(F)(F)F)cn4)CC3)cc(C(F)(F)F)c21 [Compound 316, 6-(2-(3-oxo-3-(4-(5-(trifluoromethyl)pyrimidin-2-yl)piperazin-1-yl)propoxy)ethyl)-8-(trifluoromethyl)-3,4-dihydropyrrolo[1,2-a]pyrazin-1(2H)-one] | ≤ 100 nM |
| CN(C(=O)COCCn1nc(C(F)(F)F)c2c(=O)[nH]ncc21)C1CCN(c2ncc(C(F)(F)F)cn2)CC1 [Compound 317, N-methyl-2-(2-(4-oxo-3-(trifluoromethyl)-4,5-dihydro-1H-pyrazolo[3,4-d]pyridazin-1-yl)ethoxy)-N-(1-(5-(trifluoromethyl)pyrimidin-2-yl)piperidin-4-yl)acetamide] | ≤ 100 nM |
| O=C(CCOCCn1nc(C(F)(F)F)c2c(=O)[nH]ncc21)N1CCN(c2noc(C(F)(F)F)n2)CC1 [Compound 320] | ≤ 100 nM |
| CNC(=O)c1cnc(N2CCN(C(=O)CCOCC(C)n3nc(C(F)(F)F)c4c(=O)[nH]ncc43)CC2)nc1 (stereo not drawn) [Compound 325] | ≤ 100 nM |
| CC(COCCC(=O)N1CCN(c2ncc(C#N)o2)CC1)n1nc(C(F)(F)F)c2c(=O)[nH]ncc21 (stereo not drawn) [Compound 329] | ≤ 100 nM |
| CC(COCCC(=O)N1CCN(c2ncc(C#N)o2)CC1)n1nc(C(F)(F)F)c2c(=O)[nH]ncc21 (stereo not drawn) [Compound 330] | ≤ 100 nM |
| O=C(CCOCCn1nc(C2CC2)c2c(=O)[nH]ncc21)N1CCN(c2ncc(C(F)(F)F)cn2)CC1 [Compound 333] | ≤ 100 nM |
| Cc1ccc(N2CCN(C(=O)CCOCC(C)n3nc(C(F)(F)F)c4c(=O)[nH]ncc43)CC2)nc1 (stereo not drawn) [Compound 334] | ≤ 100 nM |
| Cc1nn(C(C)COCCC(=O)N2CCN(c3ncc(Cl)cn3)CC2)c2cn[nH]c(=O)c12 (stereo not drawn) [Compound 336] | ≤ 100 nM |
| O=C(CCOCCn1ncc2c(=O)[nH]ncc21)N1CCN(c2ccc(C(F)(F)F)cc2)C(=O)C1 [Compound 337] | 1000 to 10000 nM |
| N#Cc1cn(CCOCCC(=O)N2CCN(c3ncc(C(F)(F)F)cn3)CC2)c2cn[nH]c(=O)c12 [Compound 340] | ≤ 100 nM |
| O=C(CCOCCn1cc(C(F)(F)F)c2c(=O)[nH]ncc21)N1CCN(c2nc(C(F)(F)F)cs2)CC1 [Compound 341] | ≤ 100 nM |
| CC(COCCC(=O)N1CCN(c2ccc(C(F)F)cn2)CC1)n1nc(C(F)(F)F)c2c(=O)[nH]ncc21 (stereo not drawn) [Compound 342] | ≤ 100 nM |
| CC(COCCC(=O)N1CCN(c2ccc(C(F)F)cn2)CC1)n1nc(C(F)(F)F)c2c(=O)[nH]ncc21 (stereo not drawn) [Compound 343] | ≤ 100 nM |
| CC(COCCC(=O)N1CCN(c2noc(C(F)(F)F)n2)CC1)n1nc(C(F)(F)F)c2c(=O)[nH]ncc21 (stereo not drawn) [Compound 345] | 100 to 1000 nM |
| CC(C)(COCCC(=O)N1CCN(c2ncc(C(F)(F)F)cn2)CC1)n1nc(C(F)(F)F)c2c(=O)[nH]ncc21 [Compound 346] | ≤ 100 nM |
| CC(COCCC(=O)N1CCN(c2ccc(F)cn2)CC1)n1nc(C(F)(F)F)c2c(=O)[nH]ncc21 (stereo not drawn) [Compound 347] | ≤ 100 nM |
| CC(COCCC(=O)N1CCN(c2ccc(F)cn2)CC1)n1nc(C(F)(F)F)c2c(=O)[nH]ncc21 (stereo not drawn) [Compound 348] | ≤ 100 nM |
| CC(COCCC(=O)N1CCN(c2ncc(F)cc2F)CC1)n1nc(C(F)(F)F)c2c(=O)[nH]ncc21 (stereo not drawn) [Compound 349] | ≤ 100 nM |
| CC(COCCC(=O)N1CCN(c2cc(C(F)(F)F)ccn2)CC1)n1nc(C(F)(F)F)c2c(=O)[nH]ncc21 (stereo not drawn) [Compound 351] | ≤ 100 nM |
| CC(COCCC(=O)N1CCN(c2cc(C(F)(F)F)ccn2)CC1)n1nc(C(F)(F)F)c2c(=O)[nH]ncc21 (stereo not drawn) [Compound 352] | ≤ 100 nM |
